Experimental data from US20050124638A1, “Benzimidazoles and analogs thereof as antivirals” (priority 2003, published 2005).
Where two headings read alike, the source gives them in different places.

Key:
[1] = system: HCV IRES stem IIa RNA target; test: Mass spectrometry based binding assay; conditions: for binding percentages of ligand to target: ligand 50 μM, IIa target 2.5 μM, Table 1
[2] = Single dose in vivo pharmacokinetic study; conditions: rats, single 3.0 mg/kg IV, mean; for clearance / Vd: rat, plasma; for Vd: read-out: Vdss
Description: A single dose pharmacokinetic study was performed to investigate the pharmacokinetics of representative compounds. Of particular interest was […] the ability of the compounds to accumulate in liver, which is the target tissue for HCV chemotherapy as it is the primary reservoir of virus. 3-4 rats per group were administered a single dose (3 mg/kg intravenously, IV or 6 mg/kg orally, PO). Blood samples were taken at 0.25, 0.5, 1, 2, 3, 4, 6, and 8 h timepoints, and pharmacokinetic parameters calculated. Both representative compounds were rapidly distributed to tissues, as evidenced by the high clearance rates and volumes of distribution, and low levels of excretion (ca 10% of total drug in urine and feces at 8 h). Major tissues were examined for presence of drug. […] The tissue accumulation for the IV dose is shown in FIG. 1, as a function of concentration and percent of total administered dose.

[3] = system: HCV RNA levels in Ntat2ANeo replicon containing cell line; test: Replicon assay (Ntat2ANeo replicon cells, quantitative RT-PCR of HCV RNA); type: cell-based; conditions: Hepatitis C virus; Table 8
female mice = test: Acute in vivo toxicity study; conditions: 5 or 45 mg/kg i.p. for 3 days
Description: In the study design, 3-4 female mice/group were dosed with 0, 5 or 45 mg/kg of IBIS00553642, IBIS000408094, or IBIS00405746 for 3 days (i.p.). Clinical signs, body weights, clinical pathology, organ weights, and histopathology endpoints were evaluated.
A single dose toxicity study was performed to investigate the toxicity of representative compounds. Briefly, 3-4 female mice per group were administered 0, 5, or 45 mg/kg drug (intraperitoneal) on consecutive days for 3 days. At the end of the study, mice were sacrificed, and clinical signs, body weights, clinical pathology, organ weights, and histopathology endpoints were evaluated. […] The gross findings at necropsy were minor and limited to discolorations in liver and kidney or large gallbladder in 4/18 mice (no dose response and unclear relationship to drug). […] There were no drug-related effects on clinical pathology.

MTT toxicity assay = type: cell-based
Source text: The color was quantified by spectrophotometric means. For each cell type a linear relationship between cell number and absorbance is established, enabling quantification of changes of proliferation.

[4] = Table 8, read-out: Kd to IIa target
[5] = constrained vs unconstrained N1/N2 side chains, read-out: KD

Row | Structure (SMILES) | IC50 [3] [µM] | Kd [1, 4] [µM] | CC50 at 48 h (MTT toxicity assay) [µM] | other results
1 | Nc1nc2ccccc2n1CCCN1CCCC1 |  |  |  | binding percentages of ligand to target [1]: 15%
2 | CCN(CC)CCn1c(N)nc2ccccc21 |  |  |  | binding percentages of ligand to target [1]: 15%
3 | CN(C)CCn1c(N)nc2ccccc21 |  |  |  | binding percentages of ligand to target [1]: 11%
4 | Nc1nc2ccccc2n1CCOc1ccccc1 |  |  |  | binding percentages of ligand to target [1]: 6%
5 | COc1ccc2nc(N)n(CCCN(C)C)c2c1 |  |  |  | MS Target Selectivity ([1]; Table 2): ˜10; Kd ([1]; Table 2, read-out: Est. KD): ~40 µM
6 | CN(C)CCCOc1ccc2nc(N)[nH]c2c1 |  |  |  | MS Target Selectivity ([1]; Table 3): ˜2; Kd ([1]; Table 3, read-out: Est. KD): > 500 µM
7 | CN(C)CCCOc1ccc2ncn(CCCN(C)C)c2c1 |  |  |  | MS Target Selectivity ([1]; Table 3): 1; Kd ([1]; Table 3, read-out: Est. KD): > 500 µM
8 | CN(C)CCCn1c(N)nc2ccc(OCCCN(C)Cc3ccco3)cc21 |  |  |  | clearance [2]: 34.5 mL/min/kg; Vd [2]: 82.8 L/kg; % AUC Extrap [2]: 80.0%; AUC [2]: 311 ng·h/mL; AUC Extrap [2]: 1928 ng·h/mL; Co [2]: 201 ng/mL; MRT [2]: 3.1 h; T1/2 [2]: 37.5 h
9 | CN(C)CCCOc1ccc2nc(N)n(CCCN(C)C)c2c1 [IBIS00403514] | 37.1 | 3.8 |  | 
10 | CN(C)CCCn1c(N)nc2ccc(OCCCN[C@@H]3CCN(Cc4ccccc4)C3)cc21 [IBIS00405746] |  |  |  | Clinical Signs (female mice): No significant toxicity at 5 mg/kg dose.
11 | CN(CCCOc1ccc2nc(N)n(CCCN3CCCCC3)c2c1)Cc1ccc[nH]1 [IBIS00408094] |  |  |  | Clinical Signs (female mice): No significant toxicity at 5 and 45 mg/kg doses.
12 | CN(C)CCCOc1ccc2nc3n(c2c1)CC(CN(C)C)CN3 (stereo not shown) [IBIS00408169] | 28.7 | 4.5 | > 100 | 
13 | CN(C)CC1CNc2nc3ccc(OCCCNC4CCN(Cc5ccccc5)CC4)cc3n2C1 (stereo not shown) [IBIS00528633] | 13.7 | 4 | > 100 | 
14 | CN(C)CC1CNc2nc3ccc(OCCCN4CCC(N5CCCC5)CC4)cc3n2C1 (stereo not shown) [IBIS00528634] | 19.2 | 1.7 | > 100 | 
15 | CN(C)CC1CNc2nc3ccc(OCCCN[C@@H]4CCN(Cc5ccccc5)C4)cc3n2C1 (stereo partly shown) [IBIS00528635] | 42.3 | 1 | 90 | 
16 | CN(C)CC1CNc2nc3ccc(OCCCN(C)Cc4ccc[nH]4)cc3n2C1 (stereo not shown) [IBIS00528636] | 27.2 | 1.2 | 90 | 
17 | CN(C)CC1CNc2nc3ccc(OCCCN(C)Cc4ccccn4)cc3n2C1 (stereo not shown) [IBIS00528637] | 14.2 | 0.56 | > 100 | 
18 | CC1CCCCN1CCCn1c(N)nc2ccc(OCCCN(C)Cc3ccccn3)cc21 (stereo not shown) [IBIS00553642] |  |  |  | Clinical Signs (female mice): No significant toxicity at 5 and 45 mg/kg doses.
19 | CN(C)CCCOc1ccc2nc3n(c2c1)CC(CN1CCCCC1)CN3 (stereo not shown) [IBIS00554807] | 14.1 | 3.4 | > 100 | 
20 | CN(CCCOc1ccc2nc3n(c2c1)CC(CN1CCCCC1)CN3)Cc1ccccn1 (stereo not shown) [IBIS00554811] | 24 | 4.3 | > 100 | 
21 | CN(CCCOc1ccc2nc3n(c2c1)CC(CN1CCCCC1)CN3)Cc1ccco1 (stereo not shown) [IBIS00554813] | 18.2 | 5.1 | > 100 | 
22 | CN(C)CC1CNc2nc3ccc(OCCCN(C)Cc4cccn4C)cc3n2C1 (stereo not shown) [IBIS00554842] | 4 | 0.78 | 50 | 
23 | CN(C)CC1CNc2nc3ccc(OCCCN(C)Cc4ncc[nH]4)cc3n2C1 (stereo not shown) [IBIS00554843] | > 100 | 3.1 | > 100 | 
24 | CN(C)CC1CNc2nc3ccc(OCCCN(C)Cc4ccco4)cc3n2C1 (stereo not shown) [IBIS00554844] | 4.9 | 1.7 | > 100 | 

Row | Structure (SMILES) | IC50 [3] [µM] | Kd [1, 4] [µM] | CC50 at 48 h (MTT toxicity assay) [µM] | other results
25 | CN(C)CC1CNc2nc3ccc(OCCCN(C)Cc4cccs4)cc3n2C1 (stereo not shown) [IBIS00554886] | 15.3 | 5 | > 100 | 
26 | CN(C)CC1CNc2nc3ccc(OCCCN(C)Cc4nccs4)cc3n2C1 (stereo not shown) [IBIS00554888] | > 100 | 8.8 | > 100 | 
27 | CN(C)CC1CNc2nc3ccc(OCCCN(C)Cc4ccc(CO)o4)cc3n2C1 (stereo not shown) [IBIS00554889] | 57.9 | 5.9 | > 100 | 
28 | CN(C)CC1CNc2nc3ccc(OCCCN(C)Cc4cccc(Br)n4)cc3n2C1 (stereo not shown) [IBIS00560002] | 11.6 | 110 | > 100 | 
29 | CN(C)CCCn1c(N)nc2ccc3c(c21)CC(CN(C)C)CO3 (stereo not shown) [IBIS00560020] | 9 | 2.2 | > 100 | 
30 | CN(C)CCCn1c(N)nc2ccc3c(c21)CC(CCN)CO3 (stereo not shown) [IBIS00560024] | > 100 | 3.4 | > 100 | 
31 | CN(C)CCCn1c(N)nc2ccc3c(c21)CC(CN(C)CCN(C)C)CO3 (stereo not shown) [IBIS00560025] | 71.2 | 9.4 | > 100 | 
32 | CN(C)CCCn1c(N)nc2ccc3c(c21)CC(CN(C)Cc1cccn1C)CO3 (stereo not shown) [IBIS00560031] | 21.7 | 18 | > 100 | 
33 | CN(C)CCCn1c(N)nc2ccc3c(c21)CC(CN(C)C)O3 (stereo not shown) [IBIS00560047] |  |  | > 100 | 
34 | CN(C)CCCn1c(N)nc2ccc3c(c21)CC(CN(C)CCN(C)C)O3 (stereo not shown) [IBIS00560048] | 23 | 11 | > 100 | 
35 | CNCC1COc2ccc3nc(N)n(CCCN(C)C)c3c2C1 (stereo not shown) [IBIS00560100] | 51.6 | 3.1 | > 100 | 
36 | CN(C)CCCn1c(N)nc2ccc3c(c21)CC(CN(C)C(=N)N)CO3 (stereo not shown) [IBIS00560101] | > 100 | 5.5 | > 100 | 
37 | CN(C)CCCn1c(N)nc2ccc3c(c21)CC(CN(C)Cc1cccn1C)O3 (stereo not shown) [IBIS00560102] | 3.3 | 10.4 | > 100 | 
38 | CN(C)CCCn1c(N)nc2ccc3c(c21)CC(CN)CO3 (stereo not shown) [IBIS00560121] | 42.7 | 17.2 | > 100 | 
39 | CN(C)CCCn1c(N)nc2ccc3c(c21)CC(CN(C)Cc1ncc[nH]1)CO3 (stereo not shown) [IBIS00560122] | > 100 | 19.6 | > 100 | 
40 | CN(C)CC1COc2ccc3nc4n(c3c2C1)CC(CN(C)C)CN4 (stereo not shown) [IBIS00560146] | 5.4 | 21.1 | > 100 | 
41 | CN(C)CCCn1c(N)nc2ccccc21 [drawing 62] |  |  |  | binding percentages of ligand to target [1]: 56% binding
42 | CN(C)CCCn1c(N)nc2ccccc21 [drawing 67] |  |  |  | MS Target Selectivity ([1]; Table 2): ˜3; Kd ([1]; Table 2, read-out: Est. KD): ~100 µM
43 | CN(C)CCCOc1ccc2nc(N)n(CCCN(C)C)c2c1 [drawing 69] |  |  |  | MS Target Selectivity ([1]; Table 2): ˜15; Kd ([1]; Table 2, read-out: Est. KD): ~10 µM
44 | CN(C)CCCOc1ccc2nc(N)n(CCCN(C)C)c2c1 [drawing 70] |  |  |  | MS Target Selectivity ([1]; Table 3): ˜15; Kd ([1]; Table 3, read-out: Est. KD): ~10 µM
45 | CN(C)CCCn1c(N)nc2ccccc21 [drawing 71] |  |  |  | MS Target Selectivity ([1]; Table 3): ˜3; Kd ([1]; Table 3, read-out: Est. KD): ~100 µM
46 | CN(C)CCCOc1ccc2nc3n(c2c1)CC(CN(C)C)CN3 (stereo not shown) [drawing 124] |  |  |  | Kd [1, 5]: 0.67 µM
47 | CN(C)CCCOc1ccc2nc(N)n(CCCN(C)C)c2c1 [drawing 125] |  |  |  | Kd [1, 5]: 3.6 µM
48 | CN(C)CC1CNc2nc3ccc(OCCCN(C)Cc4ccccn4)cc3n2C1 (stereo not shown) [drawing 164] |  |  |  | clearance [2]: 160 mL/min/kg; Vd [2]: 137 L/kg; % AUC Extrap [2]: 47%; AUC [2]: 165 ng·h/mL; AUC Extrap [2]: 320 ng·h/mL; Co [2]: 219 ng/mL; MRT [2]: 2 h; T1/2 [2]: 14 h
